Tested on: UBE2L3-KRAS fusion protein
Test: Western blotting of UBE2L3-KRAS fusion protein in cells treated with bortezomib
Type: cell-based, human
Protocol: The prostate cancer cell lines DU145 were transfected with siRNA duplex (Dharmacon, Lafayette, Colo., USA) against UBE2L3 (5′-CCACCGAAGATCACATTTA-3′; SEQ ID NO:1), KRAS (5′-GAAGTTATGGAATTCCTTT-3′; SEQ ID NO:2) or the fusion junction (5′-CCGACCAAGGCCTGCTGAA-3′; SEQ ID NO:3) by oligofectamine (Invitrogen). DU145 transfected with non-targeting siRNA and RWPE cells was used as negative control. Post 48 hours transfection, cells were homogenized in NP40 lysis buffer (50 mM Tris-HCl, 1% NP40, pH 7.4, Sigma, St. Louis, Mo.), and complete proteinase inhibitor mixture (Roche, Indianapolis, Ind.). Ten micrograms of each protein extract were boiled in sample buffer, separated by SDS-PAGE, and transferred onto Polyvinylidene Difluoride membrane (GE Healthcare, Piscataway, N.J.). The membrane was incubated for one hour in blocking buffer [Tris-buffered saline, 0.1% Tween (TBS-T), 5% nonfat dry milk] and incubated overnight at 4° C. with the following antibodies: anti-RAS mouse monoclonal (1:1000 in blocking buffer, Millipore Cat #: 05-516), anti-KRAS rabbit polyclonal (1:1000, Proteintech Group Inc., Cat #: 12063-1-AP) and anti-beta Actin mouse monoclonal (1:5000, Sigma Cat #: A5441) antibodies. Following three washes with TBS-T, the blot was incubated with horseradish peroxidase-conjugated secondary antibody and the signals visualized by enhanced chemiluminescence system as described by the manufacturer (GE Healthcare). To test fusion protein expression in multiple prostate derived cell lines, lysates from DU145, PrEC, RWPE, 22RV1, VCaP, PC3 either untreated or treated with 500 nM bortezomib for 12 hours were used. Bortezomib treated HEK cells over-expressing UBE2L3-KRAS fusion protein was used as a positive control. […] For ERK activation analysis NIH 3T3 cells were starved for 12 hours before immunoblot analysis using phospho erk1/2 antibody. All antibodies for the MAPK signaling proteins were purchased from Cell Signaling Technologies.

Structure (SMILES): CC(C)C[C@H](NC(=O)[C@H](Cc1ccccc1)NC(=O)c1cnccn1)B(O)O [bortezomib]
- levels of UBE2L3-KRAS protein expression (Western blot) (DU145 cells, 500 nM bortezomib for 12 hours): enhanced the levels of UBE2L3-KRAS protein expression
- expression of the UBE2L3-KRAS fusion protein (Western blot) (HEK293 cells over-expressing UBE2L3-KRAS construct, 500 nM bortezomib for 12 hours): expression of the fusion protein was clearly apparent
- expression of the UBE2L3-KRAS fusion protein (Western blot) (RWPE prostate epithelial cells overexpressing UBE2L3-KRAS): proteosomal inhibition with bortezomib was required

Reference: patent US20140364331A1, “RECURRENT GENE FUSIONS IN PROSTATE CANCER” (THE REGENTS OF THE UNIVERSITY OF MICHIGAN, priority 2009, published 2014)
